# Measurements: patent US20250360177A1, “FERMENTATION PRODUCT FOR THE TREATMENT OF INFLAMMATORY DISEASES” (ALFASIGMA S.P.A., priority 2022, published 2025)
# What was measured:
# IL-10 = IL-10 ELISA in LPS-stimulated RAW264.7 macrophages; format: cell-based; details: LPS 24 hours
# Description: Each solution was centrifuged for 20 min at 2500 rpm, the insoluble residues discarded and the supernatant filtered on 0.22-μm PES filters. […] The cells were divided into 5 groups and each group was treated for 2 hours with […] of each of the Solutions obtained from the plant extracts (Sol. Ex1-Ex5). […] At the end of incubation, the supernatants were collected and analyzed by ELISA assay (Invitrogen kit) to detect the amount of IL-10.
# [1] = system: TNBS-induced ulcerative colitis mouse model; experiment: TNBS-induced ulcerative colitis in mice, plant extract solutions; format: in vivo, C57BL/6 mice; details: TNBS 2 mg/mouse i.r.; 100 mg/kg gavage; day 3
# Description: Ulcerative colitis was induced in a mouse model by administration of 2,4,6-trinitrobenzenesulfonic acid (TNBS) (Yang et al., Scientific Reports, 2016 6: 29716). Male C57BL/6 mice aged 6-8 weeks were divided into groups of 8 mice each. Solutions obtained from the plant extracts (Sol. […] Ex-1 (Scutellaria baicalensis Georgi)/600μL/mouse per gavage • Group E: TNBS 2 mg/mouse in 100 μL i.r.+Sol. Ex-2 (Phaseolus radiatus)/[…]/mouse per gavage • Group F: TNBS 2 mg/mouse in 100 μL i.r.+Sol. Ex-3 (Curcuma longa)/600 μL/mouse per gavage • Group G: TNBS 2 mg/mouse in 100 μL i.r.+Sol. Ex-5 (Broccoli sprouts)/600 μL/mouse per gavage. Mice were sacrificed 6 h after the last administration by cervical dislocation.
# IL-1beta mRNA = IL-1beta mRNA transcription in LPS-stimulated RAW264.7 macrophages (Real-Time PCR); format: cell-based; details: 0.1 mM, LPS 24 hours
# Description: The anti-inflammatory activity of the fermentation product in lyophilic form of L. brevis DSM 33682 obtained in the presence of Phaseolus radiatus sprout extract (Lio-Prob1) according to Example 5, and the product obtained without Phaseolus radiatus sprout extract (Lio-Prob2) according to Example 6, were analyzed by means of determination of the amount of IL-1beta mRNA.
# 3×10^5 Cells/well of RAW264.7 macrophages (ATCC) were seeded on a 24-well plate.
# Ten μl of lipopolysaccharide (LPS) from Sigma-Aldrich n.2630 (10 μg/mL) was added to each well and incubated at 37° C. in a 5% CO2 incubator for 24 hours.
# At the end of incubation, macrophage RNA was extracted and analysed by Real-Time PCR to detect the gene transcription level of the proinflammatory cytokine IL-1beta, calculated as the mean value for the treated groups compared with macrophages treated with LPS alone. In particular, total RNA was isolated from each sample using the mini RNeasy kit (QiaGen GmbH, Hilden, Germany), and 1ug of total RNA was reverse transcribed by IScript™ cDNA Synthesis Kit (BioRad, Hercules, CA, USA). Real-time PCR was carried out by a BioRad CFX96 Touch™ Real-Time PCR Detection System using SsoAdvanced Universal SYBR Green super Mix (BioRad). The expression level of each mRNA was assessed using the ΔΔCT method, and Gapdh was used as housekeeping gene for normalization. The following primers were used.
# [2] = system: TNBS-induced ulcerative colitis mouse model; experiment: TNBS-induced ulcerative colitis in mice, DAI score and colon length (Example 6); format: in vivo, C57BL/6 mice; details: TNBS 2 mg/mouse i.r.; 100 mg/kg per gavage
# Description: The efficacy of fermentation products of L. brevis DSM 33682 obtained in the presence of Phaseolus radiatus sprout extract (Lio-Prob1) or absence of the extract (Lio-Prob2) was determined by measurement of DAI score and colonic length. Male C57BL/6 mice (Envigo) aged 6-8 weeks (8 mice/group), ulcerative colitis was induced with 2,4,6-trinitrobenzenesulfonic acid (TNBS) (Yang et al., Scientific Reports, 2016 6:29716). […] Mice were sacrificed by cervical dislocation 6 h after the last administration. The disease activity index, expressed by DAI score, of C57BL/6 mice was measured according to the method reported by Yang et al., Scientific Reports, 2016 6:29716.
# [3] = system: TNF-α, IL-1β and IL-10 gene expression; experiment: Relative quantitative real-time PCR of colonic cells of TNBS-induced colitis mice; format: in vivo, C57BL/6 mice; details: Lio-Prob1 12 mg/kg or mesalazine 100 mg/kg orally 4 days
# Description: RNA of colonic cells of C57BL/6 male mice treated according to Example 8 was isolated with Trizol (Life-technologies). […] BIO 65053). Real-time PCR was performed using SYBR green Master Mix (#1725150, Biorad). GAPDH was used as internal control. The relative transcription mRNA level was calculated.
# [4] = system: TNBS-induced colitis mice; experiment: TNBS-induced colitis in mice, comparison to VSL #3 and E. coli Nissle (Example 12); format: in vivo, C57BL/6 mice; details: TNBS 2 mg/mouse ir; 100 mg per kg mouse os, 4 days
# Description: C57BL/6 Male mice aged 7-8 weeks (ENVIGO, Italy) were housed under standard laboratory conditions: light/dark cycles (12/12 hr), ambient temperature 20±2° C., 55% relative air humidity and food (Mucedola RF18) and water ad libitum.
# Colitis was induced in the mice as previously described, using TNBS (Yang et al., Scientific Reports, 2016 6:29716).
# After 3 h of colitis induction, each group of mice was orally administered with the corresponding treatment for 4 days. During the 4-day trial, the mice were routinely inspected for their body mass, and diarrhea. All mice were sacrificed by cervical dislocation for sample collection at the end of day 4.
smiles,measurement,setting,value
CC(=O)O [Acetate],% IL-10 (vs LPS) ± SD,IL-10; 5 mM,199 ± 14%
CCCC(=O)O [Butyrate],% IL-10 (vs LPS) ± SD,IL-10; 0.62 mM,268 ± 71%
Nc1ccc(O)c(C(=O)O)c1 [Mesalazine],% IL-10 (vs LPS) ± SD,IL-10; 0.1 mM,216 ± 55%
same,% IL-10 (vs LPS) ± SD,IL-10; 0.2 mM,269 ± 18%
same,colon length (mm) ± SE,[1],68 ± 1.9 mm
same,mRNA IL-1beta transcription inhibition compared to LPS treatment,IL-1beta mRNA,59%
same,DAI score ± SE,[2],1.1 ± 0.5
same,colon length (mm) ± SE,[2],66.6 ± 0.5 mm
same,"expression levels of pro-inflammatory genes, including TNF-α and IL-1β (in words)",[3]; colon of TNBS-induced acute colitis mice,reduced the expression levels of pro-inflammatory genes
same,expression of IL-10 (in words),[3]; colon of TNBS-induced colitis mice,increased
same,BWL body weight loss % max,[4],4%
CCC(=O)O [Propionate],% IL-10 (vs LPS) ± SD,IL-10; 10 mM,135 ± 2%
